Results: patent publication US20220325235A1, “CELL CULTURE METHODS” (The University of Massachusetts, priority 2019, published 2022)
“Also recorded” adds a separate entry of the source.

Key:
CHO-K1 cell line = assay: Fed-batch spiking test: IgG glycan profile by HPLC with Glycan Column; assay type: cell-based, Chinese hamster
Experimental: Industrial standard Fed-batch process: CHO-K1 cell line is cultured in corresponding media. Feed for 14 days, with 6 mM glutamine supplement on the inoculation day. The working volume is 30 mL in 125 mL shake flasks, and the inoculation cell density is 0.5 million cells/mL. The parameters for the shaking incubator are: 125 RPM, and 5% CO2. The feeding strategy is 10% corresponding feed everyday starting from day 3 to day 13.
In the standard industrial fed-batch process, cells were exposed to the inhibitors for a long period of time. This experiment mimics the therapeutic antibody production process, and spikes the inhibitors at their end-of-culture cellular concentration. ICA was confirmed as a known inhibitor and was used as a positive inhibitor control. Mixture condition excluded ICA and included AA, HICA, CMP, MSA, TRI, NAP. The process lasted for 14 days, and starting from day 6, the cell density under the inhibitor conditions were lower than the negative control batch.
IgG titer was measured by HPLC with a Protein A column. Product quality was quantified by the IgG glycan profile, which was measured by HPLC with a Glycan Column.

CHO cells = assay: Batch culture spiking of metabolites at end-of-culture concentration: cell density; assay type: cell-based, Chinese hamster; conditions: 6 days, spiked at end-of-culture concentration
Experimental: CHO K-1 industrial standard batch process: NIH CHO-K1 cell line is cultured for 6 days, with 6 mM glutamine supplement on the inoculation day. The working volume is 30 mL in 125 mL shake flasks, and the inoculation cell density is 0.5 million cells/mL. The parameters for the shaking incubator are: 125 RPM, and 5% CO2.
Cells were exposed to the identified inhibitory metabolites of Table 1 at their end-of-culture concentration for 6 days in batch culture. […] All of the inhibitory metabolites decreased the antibody productivity (FIG. 4).

SMILES	Impact on G1F formation compared to control group (CHO-K1 cell line)	Cell density compared with the control group (CHO cells)	Impact on G2F formation compared to control group (CHO-K1 cell line; Day 14)
CC(C)CC(O)C(=O)O (stereo not drawn) [HICA, leucinic acid]	higher impact		
CC(CC(=O)O)C(=O)O (stereo not drawn) [MSA, methylsuccinic acid]	higher impact		
O=C(O)c1c[nH]c2ccccc12 [ICA, indole-3-carboxylic acid, reference compound]	higher impact	lower cell density	
Nc1ccn([C@@H]2O[C@H](COP(=O)(O)O)[C@@H](O)[C@H]2O)c(=O)n1 [CMP, cytidine monophosphate]	higher impact	lower cell density	
O=C(O)C=C(CC(=O)O)C(=O)O [AA, aconitic acid]	higher impact	lower cell density	totally inhibits; also recorded: G2F was not formed
